Measurements from patent publication US20260078120A1, “SUBSTITUTED PYRIDOPYRIMIDINONES” (MIRATI THERAPEUTICS, INC., priority 2022, published 2026).
Where two headings read alike, the source gives them in different places.

Legend:
[1] = test system: T47D (PI3Kα H1047R mutant) cells; test: CellTiter-Glo 2.0 luminescent cell viability assay, 72 hours, T47D cells; assay type: cell-based
Procedure, shortened: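 Cells seeded at 1000 per well overnight were dosed with a 10-concentration, 1:4 series starting at 10 µM and incubated ~72 h at 37° C. Viability was read by CellTiter-Glo 2.0 luminescence after 30 min at room temperature. IC50 came from four-parameter fits of percent vehicle control.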

[2] = test system: SKBR3 (PI3Kα wild type) cells; test: CellTiter-Glo 2.0 luminescent cell viability assay, 72 hours, SKBR3 cells; assay type: cell-based
Procedure, shortened: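 Viability measured via CTG luminescence following roughly 72 hours of compound exposure at 37° C. Dosing used a 10 um starting concentration diluted 1:4 over 10 points; percent-of-vehicle data fitted with a variable-slope four-parameter model for IC50.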

[3] = Homo sapiens, T47D, 72 h, T47D (PI3Kα H1047R mutant) cells, CellTiter-Glo, approximately 72 hours, read-out: T47D (H1047R mutant) Viability IC50
[4] = Homo sapiens, SK-BR-3, 72 h, SKBR3 (PI3Kα wild type) cells, CellTiter-Glo, approximately 72 hours, read-out: SKBR3 (WT) Viability IC50
[5] = T47D (PI3Kα H1047R mutant) cells, CellTiter-Glo, approximately 72 hours, read-out: T47D (H1047R mutant) Viability IC50

Row | SMILES | IC50 [1, 3] [nM] | IC50 [2, 4] [nM] | also measured
1 | Cc1cc([C@@H](C)Nc2ccc(Cl)nc2C(=O)O)c2nc(N3CCN(c4ccc(C#N)cc4C)CC3)c(C#N)c(=O)n2c1 [Example 11-132, (R)-6-chloro-3-((1-(3-cyano-2-(4-(4-cyano-2-methylphenyl)piperazin-1-yl)-7-methyl-4-oxo-4H-pyrido[1,2-a]pyrimidin-9-yl)ethyl)amino)picolinic acid] | 172 | > 10000 | –
2 | Cc1cc(C(C)Nc2ccccc2C(=O)O)c2nc(-c3ccc(F)cc3)cc(=O)n2c1 (stereo not shown) [Example 11-391, 2-((1-(2-(4-fluorophenyl)-7-methyl-4-oxo-4H-pyrido[1,2-a]pyrimidin-9-yl)ethyl)amino)benzoic acid] | 9620 | > 10000 | –
3 | Cc1cc([C@@H](C)Nc2ccccc2C(=O)O)c2nc(N3CC[C@H]3C(F)(F)F)c(C)c(=O)n2c1 [Example 11-97, 2-(((R)-1-(3,7-dimethyl-4-oxo-2-((S)-2-(trifluoromethyl)azetidin-1-yl)-4H-pyrido[1,2-a]pyrimidin-9-yl)ethyl)amino)benzoic acid] | 309 | > 10000 | –
4 | C[C@@H](Nc1ccccc1C(=O)O)c1cc(C#N)cn2c(=O)cc(N3CCC(F)(F)CC3)nc12 [Example 11-418, (R)-2-((1-(7-cyano-2-(4,4-difluoropiperidin-1-yl)-4-oxo-4H-pyrido[1,2-a]pyrimidin-9-yl)ethyl)amino)benzoic acid] | > 10000 | > 10000 | –
5 | Cc1cc([C@@H](C)Nc2ccc(F)nc2C(=O)O)c2nc(N3CCC(F)(F)CC3)c(C)c(=O)n2c1 [Example 10-105, (R)-3-((1-(2-(4,4-difluoropiperidin-1-yl)-3,7-dimethyl-4-oxo-4H-pyrido[1,2-a]pyrimidin-9-yl)ethyl)amino)-6-fluoropicolinic acid] | – | > 10000 | IC50 [1, 5]: 89.4 nM
6 | Cc1cc([C@@H](C)Nc2cc(Cl)nnc2C(=O)O)c2nc(N3Cc4ccccc4C3)c(C)c(=O)n2c1 [Example 11-276, (R)-6-chloro-4-((1-(2-(isoindolin-2-yl)-3,7-dimethyl-4-oxo-4H-pyrido[1,2-a]pyrimidin-9-yl)ethyl)amino)pyridazine-3-carboxylic acid] | > 10000 | > 10000 | –
7 | Cc1cc([C@@H](C)Nc2ccccc2C(=O)O)c2nc(C3CC3)c(C#N)c(=O)n2c1 [Example 11-244, (R)-2-((1-(3-cyano-2-cyclopropyl-7-methyl-4-oxo-4H-pyrido[1,2-a]pyrimidin-9-yl)ethyl)amino)benzoic acid] | 116 | > 10000 | –
8 | Cc1cc([C@@H](C)Nc2ccccc2C(=O)O)c2nc(N[C@H](C3CC3)C(F)(F)F)c(C#N)c(=O)n2c1 [Example 11-160, 2-(((R)-1-(3-cyano-2-(((R)-1-cyclopropyl-2,2,2-trifluoroethyl)amino)-7-methyl-4-oxo-4H-pyrido[1,2-a]pyrimidin-9-yl)ethyl)amino)benzoic acid] | 657 | > 10000 | –
9 | CC(Nc1ccccc1C(=O)O)c1cc(C(F)(F)F)cn2c(=O)cc(N3CCCCC3)nc12 (stereo not shown) [Example 11-416, 2-((1-(4-oxo-2-(piperidin-1-yl)-7-(trifluoromethyl)-4H-pyrido[1,2-a]pyrimidin-9-yl)ethyl)amino)benzoic acid] | 9090 | > 10000 | –
10 | CO[C@H]1CN(c2nc3c([C@@H](C)Nc4ccccc4C(=O)O)cc(C)cn3c(=O)c2C)CCC1(F)F [Example 11-57, 2-(((R)-1-(2-((S)-4,4-difluoro-3-methoxypiperidin-1-yl)-3,7-dimethyl-4-oxo-4H-pyrido[1,2-a]pyrimidin-9-yl)ethyl)amino)benzoic acid] | 132 | > 10000 | –
11 | Cc1cc([C@@H](C)Nc2ccccc2C(=O)O)c2nc(N3C[C@H]4C[C@@H]3CN4c3ccc(C#N)cc3)c(C)c(=O)n2c1 [Example 11-176, 2-(((R)-1-(2-((1R,4R)-5-(4-cyanophenyl)-2,5-diazabicyclo[2.2.1]heptan-2-yl)-3,7-dimethyl-4-oxo-4H-pyrido[1,2-a]pyrimidin-9-yl)ethyl)amino)benzoic acid] | 722 | > 10000 | –
12 | Cc1cc([C@@H](C)Nc2ccccc2C(=O)O)c2nc(N3CC(C(F)F)C3)c(C#N)c(=O)n2c1 [Example 11-104, (R)-2-((1-(3-cyano-2-(3-(difluoromethyl)azetidin-1-yl)-7-methyl-4-oxo-4H-pyrido[1,2-a]pyrimidin-9-yl)ethyl)amino)benzoic acid] | 306 | > 10000 | –
13 | Cc1cc([C@@H](C)Nc2ccccc2C(=O)O)c2nc(N3C[C@@H](C)C(F)(F)C3)c(C)c(=O)n2c1 [Example 11-120, 2-(((R)-1-(2-((R)-3,3-difluoro-4-methylpyrrolidin-1-yl)-3,7-dimethyl-4-oxo-4H-pyrido[1,2-a]pyrimidin-9-yl)ethyl)amino)benzoic acid] | 168 | > 10000 | –
14 | Cc1cc([C@@H](C)Nc2ccncc2C(=O)O)c2nc(N3Cc4ccccc4C3)c(C)c(=O)n2c1 [Example 11-275, (R)-4-((1-(2-(isoindolin-2-yl)-3,7-dimethyl-4-oxo-4H-pyrido[1,2-a]pyrimidin-9-yl)ethyl)amino)nicotinic acid] | > 10000 | > 10000 | –
15 | C#CC(Nc1ccccc1C(=O)O)c1cc(C)cn2c(=O)c(C)c(N3CCC(F)(F)CC3)nc12 (stereo not shown) [Example 11-241, 2-((1-(2-(4,4-difluoropiperidin-1-yl)-3,7-dimethyl-4-oxo-4H-pyrido[1,2-a]pyrimidin-9-yl)prop-2-yn-1-yl)amino)benzoic acid] | > 10000 | > 10000 | –
16 | Cc1cc(C(C)Nc2ccc(Cl)nc2C(=O)O)c2nc(N3Cc4ccccc4C3)c(C)c(=O)n2c1 (stereo not shown) [Example 11-361] | 276 | 8790 | –
17 | Cc1cc([C@@H](C)Nc2ccccc2C(=O)O)c2nc(N3CCC4(CCOC4)CC3)c(C)c(=O)n2c1 [Example 11-62, (R)-2-((1-(3,7-dimethyl-4-oxo-2-(2-oxa-8-azaspiro[4.5]decan-8-yl)-4H-pyrido[1,2-a]pyrimidin-9-yl)ethyl)amino)benzoic acid] | – | – | IC50 [1, 5]: 173 nM; IC50 ([2]; SKBR3 (PI3Kα wild type) cells, CellTiter-Glo, approximately 72 hours, read-out: SKBR3 (WT) Viability IC50): > 10000 nM
18 | CCN(CC)c1nc2c([C@@H](C)Nc3ccccc3C(=O)O)cc(C)cn2c(=O)c1C#N [Example 11-320, (R)-2-((1-(3-cyano-2-(diethylamino)-7-methyl-4-oxo-4H-pyrido[1,2-a]pyrimidin-9-yl)ethyl)amino)benzoic acid] | 540 | > 10000 | –
19 | Cc1cc([C@@H](C)Nc2ccccc2C(=O)O)c2nc(NC[C@H]3CC3(F)F)c(C#N)c(=O)n2c1 [Example 11-156, 2-(((R)-1-(3-cyano-2-((((R)-2,2-difluorocyclopropyl)methyl)amino)-7-methyl-4-oxo-4H-pyrido[1,2-a]pyrimidin-9-yl)ethyl)amino)benzoic acid] | 174 | > 10000 | –
20 | Cc1cc([C@@H](C)Nc2ccccc2C(=O)O)c2nc(N3CC4(C3)CC(F)(F)C4)c(C)c(=O)n2c1 [Example 11-202, (R)-2-((1-(2-(6,6-difluoro-2-azaspiro[3.3]heptan-2-yl)-3,7-dimethyl-4-oxo-4H-pyrido[1,2-a]pyrimidin-9-yl)ethyl)amino)benzoic acid] | 304 | > 10000 | –
21 | Cc1cc([C@@H](C)Nc2ccccc2C(=O)O)c2nc(-c3cnn(-c4ccc(C#N)cc4)c3)cc(=O)n2c1 [Example 11-240, (R)-2-((1-(2-(1-(4-cyanophenyl)-1H-pyrazol-4-yl)-7-methyl-4-oxo-4H-pyrido[1,2-a]pyrimidin-9-yl)ethyl)amino)benzoic acid] | 573 | 3230 | –
22 | Cc1cc([C@@H](C)Nc2ccccc2C(=O)O)c2nc(N3CCN(Cc4cccnc4)CC3C)c(C)c(=O)n2c1 (stereo partly drawn) [Example 10-132, 2-(((1R)-1-(3,7-dimethyl-2-(2-methyl-4-(pyridin-3-ylmethyl)piperazin-1-yl)-4-oxo-4H-pyrido[1,2-a]pyrimidin-9-yl)ethyl)amino)benzoic acid] | 51 | > 10000 | –
23 | Cc1cc([C@@H](C)Nc2ccccc2C(=O)O)c2nc(N[C@H](C)C3CC3)c(C#N)c(=O)n2c1 [Example 11-165, 2-(((R)-1-(3-cyano-2-(((R)-1-cyclopropylethyl)amino)-7-methyl-4-oxo-4H-pyrido[1,2-a]pyrimidin-9-yl)ethyl)amino)benzoic acid] | 485 | > 10000 | –
24 | Cc1cc([C@@H](C)Nc2ccccc2C(=O)O)c2nc(N3CC4CC4C3)c(C#N)c(=O)n2c1 (stereo partly drawn) [Example 11-223, 2-(((1R)-1-(2-(3-azabicyclo[3.1.0]hexan-3-yl)-3-cyano-7-methyl-4-oxo-4H-pyrido[1,2-a]pyrimidin-9-yl)ethyl)amino)benzoic acid] | 126 | > 10000 | –
25 | Cc1cc(C(C)Nc2ccccc2C(=O)O)c2nc(N3CCOCC3)cc(=O)n2c1 (stereo not shown) [Example 11-420, 2-((1-(7-methyl-2-morpholino-4-oxo-4H-pyrido[1,2-a]pyrimidin-9-yl)ethyl)amino)benzoic acid] | – | – | IC50 ([1]; Homo sapiens, T47D, 72 h, read-out: T47D (H1047R mutant) Viability IC50 (nM)): 1310 nM; IC50 ([2]; Homo sapiens, SK-BR-3, 72 h, read-out: SKBR3 (WT) Viability IC50 (nM)): > 10000 nM
26 | Cc1cc([C@@H](C)Nc2ccccc2C(=O)O)c2nc(N3CCN(c4ccccc4C#N)C[C@H]3C)c(C)c(=O)n2c1 [Example 11-83, 2-(((R)-1-(2-((R)-4-(2-cyanophenyl)-2-methylpiperazin-1-yl)-3,7-dimethyl-4-oxo-4H-pyrido[1,2-a]pyrimidin-9-yl)ethyl)amino)benzoic acid] | 157 | > 10000 | –
